# In patent US4617994A, “Determining residual oil saturation by injecting CO2 and base generating reactant” (priority 1985, dated 1986):
# Read-outs that look alike come from different tables or passages of the source.
# Assay type: physicochemical
# [1] = 206 °F, pH 6.0, 50 psig, 0.5 M/L NaCl, 0.05 mol/liter base generator
# 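Also: hydrolysis of the base generator in aqueous solution, t1/2 given in hours as the time until half of it has reacted, with pH held steady during the run.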
# Text: In each case, the solution was maintained at a pressure of 50 psig during the test. The pH of the solution was maintained substantially constant by adding portions at 0.1 mol/liter sodium bicarbonate solution to the system while the hydrolysis was proceeding. Each base generator solution consisted of water containing 0.5 mol/liter sodium chloride and 0.05 mols/liter of the base generator.
# *^1 This is the time, in hours, required for the base generator to be
# This is a convenient way to measure the speed of a reaction.
compound,measurement,setting,value
"N#CO [KOCN, Potassium Cyanate]","Half Life, t1/2","78 °F, pH 6.0, 50 psig, 0.5 M/L NaCl, 0.05 mol/liter base generator",19.6 h
same,"Half Life, t1/2","78 °F, pH 6.5, 50 psig, 0.5 M/L NaCl, 0.05 mol/liter base generator",68.6 h
same,"Half Life, t1/2","78 °F, pH 7.0, 50 psig, 0.5 M/L NaCl, 0.05 mol/liter base generator",206.4 h
same,"Half Life, t1/2","99 °F, pH 7.0, 50 psig, 0.5 M/L NaCl, 0.05 mol/liter base generator",~ 94.0 hours
same,"Half Life, t1/2","99 °F, pH 7.5, 50 psig, 0.5 M/L NaCl, 0.05 mol/liter base generator",~ 223.0 hours
same,"Half Life, t1/2","116 °F, pH 8.0, 50 psig, 0.5 M/L NaCl, 0.05 mol/liter base generator",~ 223.0 hours
"O=N[O-].[Na+] [NaNO2, Sodium Nitrite]","Half Life, t1/2","212 °F, pH 6.0, 50 psig, 0.5 M/L NaCl, 0.05 mol/liter base generator",80.0 h
same,"Half Life, t1/2","279 °F, pH 5.5, 50 psig, 0.5 M/L NaCl, 0.05 mol/liter base generator",17.5 h
same,"Half Life, t1/2","279 °F, pH 6.0, 50 psig, 0.5 M/L NaCl, 0.05 mol/liter base generator",49.2 h
same,"Half Life, t1/2","279 °F, pH 7.0, 50 psig, 0.5 M/L NaCl, 0.05 mol/liter base generator",141.4 h
same,"Half Life, t1/2","280 °F, pH 6.5, 50 psig, 0.5 M/L NaCl, 0.05 mol/liter base generator",84.9 h
same,"Half Life, t1/2","296 °F, pH 6.5, 50 psig, 0.5 M/L NaCl, 0.05 mol/liter base generator",73.2 h
"CC1CO1 (stereo not shown) [Propylene oxide, Propylene Oxide]","Half Life, t1/2","76 °F, pH 7.0, 50 psig, 0.5 M/L NaCl, 0.05 mol/liter base generator",86.1 h
same,"Half Life, t1/2","106 °F, pH 6.0, 50 psig, 0.5 M/L NaCl, 0.05 mol/liter base generator",26.5 h
same,"Half Life, t1/2","122 °F, pH 6.0, 50 psig, 0.5 M/L NaCl, 0.05 mol/liter base generator",26.0 h
same,"Half Life, t1/2","122 °F, pH 7.0, 50 psig, 0.5 M/L NaCl, 0.05 mol/liter base generator",35.6 h
NC(N)=O [Urea],"Half Life, t1/2","0.5 m nacl water, pH 5.5",8.4 h
same,"Half Life, t1/2","0.5 m nacl water, pH 6.2",12.3 h
same,"Half Life, t1/2","0.5 m nacl water, pH 7",45.2 h
same,"Half Life, t1/2","0.5 m nacl water, pH 8",15.9 h
O=C1C=CC(=O)N1 [Maleimide],"Half Life, t1/2","76 °F, pH 6.0, 50 psig, 0.5 M/L NaCl, 0.05 mol/liter base generator",450.1 h
same,"Half Life, t1/2","96 °F, pH 6.0, 50 psig, 0.5 M/L NaCl, 0.05 mol/liter base generator",53.6 h
same,"Half Life, t1/2","109 °F, pH 6.0, 50 psig, 0.5 M/L NaCl, 0.05 mol/liter base generator",92.0 h
same,"Half Life, t1/2","109 °F, pH 7.0, 50 psig, 0.5 M/L NaCl, 0.05 mol/liter base generator",35.0 h
same,"Half Life, t1/2","110 °F, pH 5.5, 50 psig, 0.5 M/L NaCl, 0.05 mol/liter base generator",439.0 h
same,"Half Life, t1/2","110 °F, pH 6.5, 50 psig, 0.5 M/L NaCl, 0.05 mol/liter base generator",43.8 h
same,"Half Life, t1/2","140 °F, pH 6.0, 50 psig, 0.5 M/L NaCl, 0.05 mol/liter base generator",18.4 h
same,"Half Life, t1/2",[1],too fast
O=C1CCC(=O)N1 [Succinimide],"Half Life, t1/2","177 °F, pH 6.0, 50 psig, 0.5 M/L NaCl, 0.05 mol/liter base generator",184.1 h
same,"Half Life, t1/2","177 °F, pH 7.0, 50 psig, 0.5 M/L NaCl, 0.05 mol/liter base generator",28.4 h
same,"Half Life, t1/2",[1],31.3 h
